In patent EP0156224A2, “Novel benzoxathiin derivative, process for preparing them and pharmaceutical composition” (SUNTORY LIMITED, priority 1984, dated 1985):
Where two headings read alike, the source gives them in different places. Blank lines part the entries; values can stand above or below the molecule they belong to.

Experiments:
ddy male mouse = test: Anti-arrhythmic effect: prevention of chloroform-induced ventricular flutter and fibrillation; format: in vivo; settings: ip, 0.5 h, read-out: Anti-arrhythmic effect (ED50)
Experimental: When a compound showing an anti-arrhythmic effect is previously administered, such an irregular ventricular appearance is prevented. The compound of this invention was intraperioneally administered in various dosages to the groups of 29 - 40 mice. After 30 minutes the mice were subjected to the inhalation of chloroform, and the preventive ratios of the venticular flutter and fibrillation were measured for respective dosages.

β-Receptor = test: β-receptor blocking effect: 3H-dihydroalprenolol binding to synaptosome membrane of rat brain
Experimental: Spraque-Dawley male rats having 150 - 200 g body weight were decapitated, and the brains were quickly taken out and, after decortication, frozen at -70°C. After freezing overnight at -70°C, the thawed brain was homogenized with a buffer [0.25 mole sucrose, 5 mmole tris(hydroxymethyl)aminomethane hydrochloride, 1 mmole magnesium chloride, pH 7.4] in an amount of 8 times the weight of the brain. The homogenate was centrifuged at 800 x g for 20 minutes, and the supernatant was centrifuged at 14,000 x g for 14 minutes, the deposit of which was washed three times with the above-mentioned buffer. The deposit finally obtained was suspended again in a buffer of 75 mmole tris(hydroxymethyl)aminomethane and 25 mmole magnesium chloride (pH 7.4) to form a membrane specimen.
To 50 1 of the membrane specimen were added 50 1 of ^3H-dihydroalprenolol (^3H-OHA) and 50 1 of the mixture of the test frug and the buffer, such that the total volume was adjusted to 150 1, and the mixture was incubated at 37°C for 10 minutes.
The reaction was stopped by adding an ice-cooled mixture of 50 mmole tris(hydroxymethyl)aminomethane hydrochloride and 17 mmole magnesium chloride (pH 7.4), and the mixture was filtered under reduced pressure through a Whatman GF/B glassfiber. The filter was washed three times and dried, and a toluene type scintillator was added to measure the radioactivity.
. In the measurement, the amount obtained by subtracting the bondings obtained in the presence of 10^-5 mole propranolol from the total bondings was considered to represent the specific bondings of the S-receptor. In addition, the determination of protein was carried out according to the method of Lowry et al. [Lowry, O.H. et al., J. Biol. Chem., 193, 265-275 (1951)].

in vivo = settings: mouse, ddy male mice, mortality within 1 week
[1] = tested on: SHR (spontaneous hypertensive rat); test: Effect on mean blood pressure in conscious spontaneously hypertensive rats; format: in vivo; settings: for mean blood pressure % Exchange: conscious SHR, mean ±SEM
From the text: In order to measure the blood pressure of a SHR (spontaneous hypertensive rat), a polyethylene tube was inserted into an artery to a level of the abdominal aorta through the crural artery, and the other end of the tube was tightly stoppered by a metal rod, extended subcutaneously and exposed out of the body at the posterior of the neck and fixed by suturation to the surrounding skin. The tube was filled with 500 U of heparin.
On the day subsequent to the operation, the blood pressure was measured without anesthetization or restriction using a pressure transducer and continously recorded on a thermal recording system together with the heart rate which was measured by driving a tachometer with the pulse wave of blood pressure.
The test drugs were dissolved in physiological saline and administered using a sound (p.o.)

[2] = 10^-5 mole test compound, 10 µM
[3] = intraperitoneal, chloroform inhalation after 30 minutes, mice
[4] = iv, caudal vein, read-out: Acute toxicity (LD50) intra-venous
[5] = po, in stomach, read-out: Acute toxicity (LD50) in stomach

Compound: CC(C)NCC(O)COc1cccc2ccccc12 (stereo not drawn) [propranolol, reference compound]
ED50 (ddy male mouse): 2.2 mg/kg

β-Receptor blocking effect Inhibition (%) (β-Receptor; [2]): 62.6% | β-Receptor blocking effect Inhibition (%) (β-Receptor; 10^-6 mole test compound, 1 µM): 17.1%
Compound: CN(C)CC(O)COc1cccc2c1OS(=O)(=O)CC2 (stereo not drawn) [Example 2, 8-(3-dimethylamino-2-hydroxypropoxy)-3,4-dihydro-1,2-benzoxathiin-2,2-dioxide]

β-Receptor blocking effect Inhibition (%) (β-Receptor; [2]): 73.9% | β-Receptor blocking effect Inhibition (%) (β-Receptor; 10^-6 mole test compound, 1 µM): 35.4%
Compound: CNCC(O)COc1cccc2c1OS(=O)(=O)CC2 (stereo not drawn) [Example 1, 8-(3-methylamino-2-hydroxypropoxy)-3,4-dihydro-1,2-benzoxathiin-2,2-dioxide]

Compound: CCC(C)NCC(O)COc1cccc2c1OS(=O)(=O)CC2 (stereo not drawn) [Example 5, 8-(3-sec-butylamino-2-hydroxypropoxy)-3,4-dihydro-1,2-benzoxathiin-2,2-dioxide]
β-Receptor blocking effect Inhibition (%) (β-Receptor; [2]): 95.3% | β-Receptor blocking effect Inhibition (%) (β-Receptor; 10^-6 mole test compound, 1 µM): 83.0% | ED50 (ddy male mouse; [3]): 1.3 mg/kg | LD50 at 168 h (in vivo; [4]): 68.2 mg/kg | LD50 at 168 h (in vivo; [5]): > 500 mg/kg

β-Receptor blocking effect Inhibition (%) (β-Receptor; [2]): 90.1% | β-Receptor blocking effect Inhibition (%) (β-Receptor; 10^-6 mole test compound, 1 µM): 75.2%
Compound: COc1ccc(CCNCC(O)COc2cccc3c2OS(=O)(=O)CC3)cc1OC (stereo not drawn) [Example 7, 8-[3-(3,4-dimethoxyphenethylamino)-2-hydroxy-propoxy]-3,4-dihydro-1,2-benzoxathiin-2,2-dioxide]

Compound: CC(C)(C)NCC(O)COc1cccc2c1OS(=O)(=O)CC2 (stereo not drawn) [Example 4, 8-(3-t-butylamino-2-hydroxypropoxy)-3,4-dihydro-l,2-benzoxathiin-2,2-dioxide]
β-Receptor blocking effect Inhibition (%) (β-Receptor; [2]): 91.4% | β-Receptor blocking effect Inhibition (%) (β-Receptor; 10^-6 mole test compound, 1 µM): 96.3% | mean blood pressure % Exchange ([1]; 0.1 mg/kg p.o., 10 min): 6.4 ± 3.5% | mean blood pressure % Exchange ([1]; 0.1 mg/kg p.o., 20 min): 4.6 ± 3.2% | mean blood pressure % Exchange ([1]; 0.1 mg/kg p.o., 30 min): 4.1 ± 2.6% | mean blood pressure % Exchange ([1]; 0.1 mg/kg p.o., 60 min): -4.2 ± 3.8% | mean blood pressure % Exchange ([1]; 0.1 mg/kg p.o., 90 min): -6.5 ± 3.2% | mean blood pressure % Exchange ([1]; 0.1 mg/kg p.o., 120 min): -7.3 ± 5.9% | mean blood pressure % Exchange ([1]; 0.1 mg/kg p.o., 3 hr): -8.9 ± 3.0% | mean blood pressure % Exchange ([1]; 0.1 mg/kg p.o., 4 hr): -13.0 ± 2.5 % | mean blood pressure % Exchange ([1]; 0.1 mg/kg p.o., 5 hr): -14.7 ± 2.5 % | mean blood pressure % Exchange ([1]; 0.1 mg/kg p.o., 6 hr): -14.8 ± 2.4 % | mean blood pressure % Exchange ([1]; 0.1 mg/kg p.o., 24 hr): -2.8 ± 4.2% | mean blood pressure % Exchange ([1]; 1 mg/kg p.o., 10 min): 1.4 ± 1.2% | mean blood pressure % Exchange ([1]; 1 mg/kg p.o., 20 min): -0.3 ± 1.7% | mean blood pressure % Exchange ([1]; 1 mg/kg p.o., 30 min): -8.1 ± 2.9 % | mean blood pressure % Exchange ([1]; 1 mg/kg p.o., 60 min): -12.0 ± 4.3 % | mean blood pressure % Exchange ([1]; 1 mg/kg p.o., 90 min): -10.9 ± 2.8 % | mean blood pressure % Exchange ([1]; 1 mg/kg p.o., 120 min): -14.5 ± 4.3 % | mean blood pressure % Exchange ([1]; 1 mg/kg p.o., 3 hr): -16.3 ± 4.1 % | mean blood pressure % Exchange ([1]; 1 mg/kg p.o., 4 hr): -20.0 ± 3.7 % | mean blood pressure % Exchange ([1]; 1 mg/kg p.o., 5 hr): -24.5 ± 4.0 % | mean blood pressure % Exchange ([1]; 1 mg/kg p.o., 6 hr): -24.1 ± 3.3 % | mean blood pressure % Exchange ([1]; 1 mg/kg p.o., 24 hr): -11.5 ± 6.2% | duration of hypotensive effect ([1]; result in words, SHR, p.o., after 24 hours): remains effective even after 24 hours | hypotensive effect ([1]; result in words, SHR, p.o., compared with carteolol): excellent hypotensive effect at almost the same level as carteolol | ED50 (ddy male mouse; [3]): 0.03 mg/kg | LD50 at 168 h (in vivo; [4]): 59.2 mg/kg | LD50 at 168 h (in vivo; [5]): > 500 mg/kg

Compound: CCCC(=O)Nc1ccc(OCC(O)CNC(C)C)c(C(C)=O)c1 (stereo not drawn) [acebutolol, reference compound]
ED50 (ddy male mouse; [3]): 47 mg/kg

Compound: CC(C)(C)NCC(O)COc1cccc2c1CCC(=O)N2 (stereo not drawn) [carteolol, reference compound]
mean blood pressure % Exchange ([1]; 0.1 mg/kg p.o., 10 min): 1.4 ± 2.1% | mean blood pressure % Exchange ([1]; 0.1 mg/kg p.o., 20 min): -9.2 ± 4.0% | mean blood pressure % Exchange ([1]; 0.1 mg/kg p.o., 30 min): -11.3 ± 3.9 % | mean blood pressure % Exchange ([1]; 0.1 mg/kg p.o., 90 min): -18.1 ± 3.7 % | mean blood pressure % Exchange ([1]; 0.1 mg/kg p.o., 120 min): -12.7 ± 6.5% | mean blood pressure % Exchange ([1]; 0.1 mg/kg p.o., 3 hr): -15.4 ± 3.3 % | mean blood pressure % Exchange ([1]; 0.1 mg/kg p.o., 4 hr): -15.1 ± 3.7 % | mean blood pressure % Exchange ([1]; 0.1 mg/kg p.o., 5 hr): -18.8 ± 1.3 % | mean blood pressure % Exchange ([1]; 0.1 mg/kg p.o., 6 hr): -20.8 ± 1.7 % | mean blood pressure % Exchange ([1]; 0.1 mg/kg p.o., 24 hr): -2.1 ± 2.5% | mean blood pressure % Exchange ([1]; 1 mg/kg p.o., 10 min): 2.5 ± 3.2% | mean blood pressure % Exchange ([1]; 1 mg/kg p.o., 20 min): -1.4 ± 2.6% | mean blood pressure % Exchange ([1]; 1 mg/kg p.o., 30 min): -5.1 ± 3.6% | mean blood pressure % Exchange ([1]; 1 mg/kg p.o., 60 min): -11.7 ± 3.3 % | mean blood pressure % Exchange ([1]; 1 mg/kg p.o., 90 min): -14.7 ± 3.6 % | mean blood pressure % Exchange ([1]; 1 mg/kg p.o., 120 min): -23.8 ± 3.0 % | mean blood pressure % Exchange ([1]; 1 mg/kg p.o., 3 hr): -23.1 ± 4.8 % | mean blood pressure % Exchange ([1]; 1 mg/kg p.o., 4 hr): -24.4 ± 4.2 % | mean blood pressure % Exchange ([1]; 1 mg/kg p.o., 5 hr): -24.7 ± 4.7 % | mean blood pressure % Exchange ([1]; 1 mg/kg p.o., 6 hr): -21.3 ± 4.2 % | mean blood pressure % Exchange ([1]; 1 mg/kg p.o., 24 hr): -2.1 ± 4.5% | ED50 (ddy male mouse; [3]): 400 mg/kg | LD50 at 168 h (in vivo; [4]): 38 mg/kg

β-Receptor blocking effect Inhibition (%) (β-Receptor; [2]): 81.9% | β-Receptor blocking effect Inhibition (%) (β-Receptor; 10^-6 mole test compound, 1 µM): 41.7%
Compound: CC(C)CNCC(O)COc1cccc2c1OS(=O)(=O)CC2 (stereo not drawn) [Example 6, 8-(3-isobutylamino-2-hydroxypropoxy)-3,4-dihydro-l,2-benzoxathiin-2,2-dioxide]

Compound: CC(C)NCC(O)COc1cccc2c1OS(=O)(=O)CC2 (stereo not drawn) [Example 3, 8-(3-isopropylamino-2-hydroxypropoxy)-3,4-dihydro-1,2-benzoxathiin-2,2-dioxide]
β-Receptor blocking effect Inhibition (%) (β-Receptor; [2]): 91.6% | β-Receptor blocking effect Inhibition (%) (β-Receptor; 10^-6 mole test compound, 1 µM): 97.6% | ED50 (ddy male mouse; [3]): 0.23 mg/kg | LD50 at 168 h (in vivo; [4]): 68.2 mg/kg | LD50 at 168 h (in vivo; [5]): > 500 mg/kg
